# Laboratory results as given in patent US20200046625A1, “COMPOUNDS USEFUL FOR THE TREATMENT AND/OR CARE OF THE SKIN, HAIR, NAILS AND/OR MUCOUS MEMBRANES” (LUBRIZOL ADVANCED MATERIALS, INC., priority 2016, published 2020).
# The star is where a group is joined. Palmitoyl = CCCCCCCCCCCCCCCC(=O)*; Myristoyl = CCCCCCCCCCCCCC(=O)*
# Key:
# [1] = tested on: primary human subcutaneous pre-adipocyte cells; assay: Reduction of lipid accumulation, AdipoRed fluorescent assay; assay type: cell-based; conditions: 8 days of treatment, PGM2 = 0%, PDM2 basal control = 100%
# Protocol: The reduction of the percentage of lipid accumulation in human pre-adipocyte cells in a complete differentiation medium (basal control) is studied by treatment of the cells with the peptides of the invention. Quantification of lipid accumulation is evaluated with AdipoRed™ Assay Reagent (Lonza). Human pre-adipocyte cells (Lonza) are seeded in quadruplicate (10.000 cells/well) on a 96-well plate and they are incubated on a complete growth medium (PGM2, Lonza) for 24 hours at […] in a water-saturated atmosphere composed of 95% air and 5% CO2. The differentiation of pre-adipocytes into adipocytes is induced by changing the complete growth medium (PGM2, Lonza) for the complete differentiation medium (PDM2, Lonza). The cells are treated with the peptides of the invention at different concentrations prepared in complete differentiation medium. Caffeine (Sigma) at 0.2 mg/ml in PDM2 medium is used as a negative control of the lipid accumulation in the cells. Caffeine is the most widely used anti-cellulite cosmetic agent. […] Manufacturer protocol is followed for the use of AdipoRed™ Assay Reagent (Lonza). In brief, the cells are washed and the reagent AdipoRed™ is added diluted (5/200). After being incubated for 15 minutes in darkness and at room temperature, the Relative Fluorescence Units (RFUs) are measured using a fluorescence plate reader (CLARIOstar™, BMG LABTECH), with excitation filter at 485 nm and emission filter at 572 nm. […] The results are calculated as the mean of all the independent experiments carried out in each case for each peptide and concentration assayed.
# [2] = tested on: Nocturnin (CCRN4L) in primary human subcutaneous pre-adipocyte cells; assay: Relative level of nocturnin by ELISA, normalized with BCA total protein; assay type: cell-based; conditions: for Nocturnin level with respect to basal condition (%): 6 days of treatment, mean of 3 independent experiments
# Protocol: The decrease in the relative level of nocturnin protein in human pre-adipocytes, cells that form adipose tissue, in a complete differentiation medium (basal condition) is studied when treating the peptides of the invention.
# Human pre-adipocytes are seeded (10,000 cells/well, 4 wells per condition) on a 96-well plate and incubated on a complete growth medium (PGM2, LONZA) for 24 hours at 37° C. at an atmosphere with a CO2 level of 5%.
# After incubation, the cells are treated with the peptides at 0.1, 0.5 and 1 mg/ml and its respective vehicles prepared in a complete differentiation medium (PDM2, LONZA). After 6 days of treatment at an atmosphere with 37° C. and a 5% CO2 level, the nocturnin level is measured using an ELISA test, and the total protein concentration is measured using a BCA (Bicinchoninic Acid) assay. For each concentration, the ELISA results are normalized with the BCA results. […] The values represent the mean of 3 independent experiments.
# The manufacturer protocol of the ELISA kit for Carbon Catabolite Repression 4 Like Protein (CCRN4L) (Uscn Life Science Inc) is followed. In brief, the cells are lysed and the cell extracts are incubated on a 96-well plate coated with an anti-body specific to CCRN4L. Afterwards, the wells are coated with an antibody specific to CCRN4L conjugated with Biotin. Next, the Avidin conjugated with the enzyme Horseradish Peroxidase (HRP) is added to the plate. Finally, 3,3′,5,5′-Tetramethylbenzidine substrate is added to the plate and a change in color is observed proportionally to the quantity of nocturnin in each concentration. Lastly, a sulfuric acid solution is added to stop the enzyme-substrate reaction and quantify the color change with an absorbance reader (CLARIOstar™, BMG LABTECH) at 450 and 570 nm.
# The manufacturer protocol of the BCA Protein assay kit (Pierce) is followed. The total protein concentration of the lysed cells is measured via a colorimetric reaction using a protein standard. In brief, the standard and the samples are distributed onto 96-well plates. The plate is then incubated with the reagent of the kit and finally the change in color is measured with the absorbance reader (CLARIOstar, BMG LABTECH) at 570 nm.
compound,measurement,setting,value
H-Tyr-Ile-Tyr-NHC6H13,% Lipid Accumulation,[1]; 1 mg/ml,52.82%
H-Tyr-Val-Tyr-Phe-Trp-NH2 (H-YVYFW-NH2),% Lipid Accumulation,[1]; 1 mg/ml,76.47%
H-Tyr-Ile-Tyr-NHC16H33,% Lipid Accumulation,[1]; 1 mg/ml,23.74%
H-Tyr-Ile-Phe-NH2,% Lipid Accumulation,[1]; 1 mg/ml,47.45%
H-Tyr-Leu-Trp-NH2,% Lipid Accumulation,[1]; 1 mg/ml,62.42%
Palmitoyl-Tyr-Leu-Tyr-OH,% Lipid Accumulation,[1]; 0.005 mg/ml,79.98%
Ac-Trp-Val-Tyr-NH2,% Lipid Accumulation,[1]; 1 mg/ml,63.18%
H-Phe-Trp-Tyr-Val-Tyr-NH2 (H-FWYVY-NH2),% Lipid Accumulation,[1]; 0.005 mg/ml,55.99%
Palmitoyl-Tyr-Val-Tyr-NH2,% Lipid Accumulation,[1]; 0.1 mg/ml,86.17%
H-Tyr-Ile-Phe-NHC6H13,% Lipid Accumulation,[1]; 1 mg/ml,30.72%
Myristoyl-Tyr-Val-Phe-NH2,% Lipid Accumulation,[1]; 1 mg/ml,37.77%
Palmitoyl-Tyr-Leu-Tyr-NH2,% Lipid Accumulation,[1]; 1 mg/ml,25.42%
Myristoyl-Tyr-Val-Tyr-NH2,% Lipid Accumulation,[1]; 1 mg/ml,12.40%
H-Tyr-Val-Tyr-NHC6H13,% Lipid Accumulation,[1]; 1 mg/ml,30.79%
H-Tyr-Val-Trp-NH2,% Lipid Accumulation,[1]; 1 mg/ml,61.87%
H-Tyr-Val-Tyr-NHC16H33,% Lipid Accumulation,[1]; 1 mg/ml,50.12%
H-Tyr-Val-Tyr-NH2,Nocturnin level with respect to basal condition (%),[2]; 0.1 mg/mL,76%
same,Nocturnin level with respect to basal condition (%),[2]; 0.5 mg/mL,62%
same,Nocturnin level with respect to basal condition (%),[2]; 1 mg/mL,48%
same,dose-response of nocturnin reduction (in words),"[2]; 0.1, 0.5 and 1 mg/ml",a dose-response relationship is observed
same,% Lipid Accumulation,[1]; 0.1 mg/ml,32.65%
same,% Lipid Accumulation,[1]; 0.5 mg/ml,18.60%
same,% Lipid Accumulation,[1]; 1 mg/ml,15.65%
H-Tyr-Val-Tyr-OH,Nocturnin level with respect to basal condition (%),[2]; 0.1 mg/mL,67%
same,Nocturnin level with respect to basal condition (%),[2]; 0.5 mg/mL,87%
same,Nocturnin level with respect to basal condition (%),[2]; 1 mg/mL,83%
same,% Lipid Accumulation,[1]; 0.1 mg/ml,35.14%
same,% Lipid Accumulation,[1]; 0.5 mg/ml,33.55%
same,% Lipid Accumulation,[1]; 1 mg/ml,22.66%
H-Tyr-Val-Tyr-Phe-NH2 (H-YVYF-NH2),% Lipid Accumulation,[1]; 1 mg/ml,86.68%
H-Tyr-Ile-Tyr-NH2,% Lipid Accumulation,[1]; 1 mg/ml,46.63%
H-Tyr-Met-Tyr-NH2,% Lipid Accumulation,[1]; 1 mg/ml,40.24%
H-Phe-Tyr-Val-Tyr-Phe-NH2 (H-FYVYF-NH2),% Lipid Accumulation,[1]; 1 mg/ml,64.31%
Ac-Tyr-Val-Tyr-NH2,% Lipid Accumulation,[1]; 1 mg/ml,20.81%
H-Tyr-Ile-Phe-NHC16H33,% Lipid Accumulation,[1]; 1 mg/ml,40.61%
"Cn1c(=O)c2c(ncn2C)n(C)c1=O [Caffeine, reference compound]",% Lipid Accumulation,[1]; 0.2 mg/ml in PDM2,76.07%
H-Tyr-Val-Tyr-Trp-NH2 (H-YVYW-NH2),% Lipid Accumulation,[1]; 1 mg/ml,90.32%
